Reference: PubChem BioAssay (NCI)
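These data come from cells grown in 96-well plates and exposed to compound for 48 hours at five concentrations. GI50 marks 50% less growth. Definition used: TGI = concentration required for complete inhibition of growth.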

Assays:
Experiment in all cases: growth of human tumour cells (NCI), 48 h
BT-549 breast = tested on: BT-549 breast
MALME-3M melanoma = tested on: MALME-3M melanoma
OVCAR-5 ovarian = tested on: OVCAR-5 ovarian
NCI-H522 lung = tested on: NCI-H522 lung
LOX IMVI melanoma = tested on: LOX IMVI melanoma
SK-MEL-5 melanoma = tested on: SK-MEL-5 melanoma
HOP-92 NSCLC = tested on: HOP-92 NSCLC
HCT-15 colon = tested on: HCT-15 colon
HT29 colon = tested on: HT29 colon
HCC-2998 colon = tested on: HCC-2998 colon
SF-295 CNS = tested on: SF-295 CNS
UO-31 renal = tested on: UO-31 renal
HL-60(TB) leukemia = tested on: HL-60(TB) leukemia
UACC-62 melanoma = tested on: UACC-62 melanoma
OVCAR-3 ovarian = tested on: OVCAR-3 ovarian
SF-539 CNS = tested on: SF-539 CNS
TK-10 renal = tested on: TK-10 renal
SR leukemia = tested on: SR leukemia
U251 CNS = tested on: U251 CNS
MCF7 breast = tested on: MCF7 breast
PC-3 prostate = tested on: PC-3 prostate
SN12C renal = tested on: SN12C renal
HCT-116 colon = tested on: HCT-116 colon
786-0 renal = tested on: 786-0 renal
CAKI-1 renal = tested on: CAKI-1 renal
NCI/ADR-RES ovarian = tested on: NCI/ADR-RES ovarian
HS 578T breast = tested on: HS 578T breast
NCI-H226 lung = tested on: NCI-H226 lung
SF-268 CNS = tested on: SF-268 CNS
RXF 393 renal = tested on: RXF 393 renal
SK-OV-3 ovarian = tested on: SK-OV-3 ovarian
MDA-MB-231 breast = tested on: MDA-MB-231 breast
SNB-19 CNS = tested on: SNB-19 CNS
CCRF-CEM leukemia = tested on: CCRF-CEM leukemia
HOP-62 NSCLC = tested on: HOP-62 NSCLC
T-47D breast = tested on: T-47D breast
MOLT-4 leukemia = tested on: MOLT-4 leukemia
KM12 colon = tested on: KM12 colon
DU-145 prostate = tested on: DU-145 prostate
MDA-MB-435 = tested on: MDA-MB-435
NCI-H23 lung = tested on: NCI-H23 lung
A498 renal = tested on: A498 renal
SNB-75 CNS = tested on: SNB-75 CNS
SK-MEL-28 melanoma = tested on: SK-MEL-28 melanoma
M14 melanoma = tested on: M14 melanoma
COLO 205 colon = tested on: COLO 205 colon
K-562 leukemia = tested on: K-562 leukemia
EKVX NSCLC = tested on: EKVX NSCLC
SK-MEL-2 melanoma = tested on: SK-MEL-2 melanoma
OVCAR-8 ovarian = tested on: OVCAR-8 ovarian
RPMI-8226 leukemia = tested on: RPMI-8226 leukemia
SW-620 colon = tested on: SW-620 colon
UACC-257 melanoma = tested on: UACC-257 melanoma
A549 NSCLC = tested on: A549 NSCLC
OVCAR-4 ovarian = tested on: OVCAR-4 ovarian
NCI-H460 lung = tested on: NCI-H460 lung
ACHN renal = tested on: ACHN renal

CC(C)N(Cc1ccccc1)c1c(S)ssc1=S
GI50 (BT-549 breast): 3.01 µM | TGI (BT-549 breast): 9.21 µM | GI50 (MALME-3M melanoma): 1.65 µM | TGI (MALME-3M melanoma): 5.99 µM | GI50 (OVCAR-5 ovarian): 3.56 µM | TGI (OVCAR-5 ovarian): > 100 µM | GI50 (NCI-H522 lung): 2.06 µM | TGI (NCI-H522 lung): > 100 µM | GI50 (LOX IMVI melanoma): 3.08 µM | TGI (LOX IMVI melanoma): 15.5 µM | GI50 (SK-MEL-5 melanoma): 0.605 µM | TGI (SK-MEL-5 melanoma): 2.82 µM | GI50 (HOP-92 NSCLC): 0.342 µM | TGI (HOP-92 NSCLC): 3.79 µM | GI50 (HCT-15 colon): 3.16 µM | TGI (HCT-15 colon): 13.5 µM | GI50 (HT29 colon): 2.29 µM | TGI (HT29 colon): 9.59 µM | GI50 (HCC-2998 colon): 4.36 µM | TGI (HCC-2998 colon): 74 µM | GI50 (SF-295 CNS): 1.19 µM | TGI (SF-295 CNS): 11.7 µM | GI50 (UO-31 renal): 3.6 µM | TGI (UO-31 renal): 70.6 µM | GI50 (HL-60(TB) leukemia): 1.16 µM | TGI (HL-60(TB) leukemia): 3.12 µM | GI50 (UACC-62 melanoma): 0.452 µM | TGI (UACC-62 melanoma): 15 µM | GI50 (OVCAR-3 ovarian): 1.21 µM | TGI (OVCAR-3 ovarian): > 100 µM | GI50 (SF-539 CNS): 3.06 µM | TGI (SF-539 CNS): 10.4 µM | GI50 (TK-10 renal): 5.08 µM | TGI (TK-10 renal): > 100 µM | GI50 (SR leukemia): 2.16 µM | TGI (SR leukemia): 7.89 µM | GI50 (U251 CNS): 2.58 µM | TGI (U251 CNS): 15.9 µM | GI50 (MCF7 breast): 1.57 µM | TGI (MCF7 breast): 5.02 µM | GI50 (PC-3 prostate): 2.23 µM | TGI (PC-3 prostate): 9.44 µM | GI50 (SN12C renal): 2.42 µM | TGI (SN12C renal): 19.7 µM | GI50 (HCT-116 colon): 2.72 µM | TGI (HCT-116 colon): 26.8 µM | GI50 (786-0 renal): 3.65 µM | TGI (786-0 renal): > 100 µM | GI50 (CAKI-1 renal): 0.661 µM | TGI (CAKI-1 renal): > 100 µM | GI50 (NCI/ADR-RES ovarian): 3.33 µM | TGI (NCI/ADR-RES ovarian): > 100 µM | GI50 (HS 578T breast): 0.861 µM | TGI (HS 578T breast): 7.08 µM | GI50 (NCI-H226 lung): 3.14 µM | TGI (NCI-H226 lung): 36.1 µM | GI50 (SF-268 CNS): 2.86 µM | TGI (SF-268 CNS): 31.7 µM | GI50 (RXF 393 renal): 2.17 µM | TGI (RXF 393 renal): 10.1 µM | GI50 (SK-OV-3 ovarian): 2.47 µM | TGI (SK-OV-3 ovarian): 9.59 µM | GI50 (MDA-MB-231 breast): 1.77 µM | TGI (MDA-MB-231 breast): 5.49 µM | GI50 (SNB-19 CNS): 3.76 µM | TGI (SNB-19 CNS): > 100 µM | GI50 (CCRF-CEM leukemia): 0.849 µM | TGI (CCRF-CEM leukemia): 6.66 µM | GI50 (HOP-62 NSCLC): 4.24 µM | TGI (HOP-62 NSCLC): > 100 µM | GI50 (T-47D breast): 1.17 µM | TGI (T-47D breast): 18.6 µM | GI50 (MOLT-4 leukemia): 1.69 µM | TGI (MOLT-4 leukemia): 7.39 µM | GI50 (KM12 colon): 2.47 µM | TGI (KM12 colon): 21.7 µM | GI50 (DU-145 prostate): 3.15 µM | TGI (DU-145 prostate): 28.7 µM | GI50 (MDA-MB-435): 0.694 µM | TGI (MDA-MB-435): 18.5 µM | GI50 (NCI-H23 lung): 3.83 µM | TGI (NCI-H23 lung): 96.3 µM | GI50 (A498 renal): 0.723 µM | TGI (A498 renal): 4.12 µM | GI50 (SNB-75 CNS): 2.98 µM | TGI (SNB-75 CNS): 26.9 µM | GI50 (SK-MEL-28 melanoma): 2.09 µM | TGI (SK-MEL-28 melanoma): 17.8 µM | GI50 (M14 melanoma): 4.67 µM | TGI (M14 melanoma): > 100 µM | GI50 (COLO 205 colon): 1.56 µM | TGI (COLO 205 colon): 4.26 µM | GI50 (K-562 leukemia): 0.941 µM | TGI (K-562 leukemia): 3.81 µM | GI50 (EKVX NSCLC): 2.2 µM | TGI (EKVX NSCLC): 8.49 µM | GI50 (SK-MEL-2 melanoma): 3.53 µM | TGI (SK-MEL-2 melanoma): 31.1 µM | GI50 (OVCAR-8 ovarian): 2.44 µM | TGI (OVCAR-8 ovarian): 22.2 µM | GI50 (RPMI-8226 leukemia): 0.772 µM | TGI (RPMI-8226 leukemia): 6.27 µM | GI50 (SW-620 colon): 2.69 µM | TGI (SW-620 colon): 12.7 µM | GI50 (UACC-257 melanoma): 1.54 µM | TGI (UACC-257 melanoma): 6.2 µM | GI50 (A549 NSCLC): 2.41 µM | TGI (A549 NSCLC): 12.9 µM | GI50 (OVCAR-4 ovarian): 0.641 µM | TGI (OVCAR-4 ovarian): > 100 µM | GI50 (NCI-H460 lung): 2.33 µM | TGI (NCI-H460 lung): 10.7 µM | GI50 (ACHN renal): 1.97 µM | TGI (ACHN renal): 12.4 µM
